What was measured:
sugar beet = test: Test B pre/postemergence sugar beet; type: in vivo, Beta vulgaris; details: for Plant response rating, Sugarbeets: scale of 0 to 10 where 0 is no effect and 10 is complete control
Summary of the method: (§1)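 Herbicidal effect was estimated by eye on a ten-point control scale after plants spent twelve to sixteen days in a greenhouse following soil or foliar treatment. Foliar sprays targeted plants at one to four leaves; all doses were formulated in a non-phytotoxic solvent with surfactant.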

corn = test: Test B pre/postemergence corn; type: in vivo, Zea mays
Summary of the method: as §1

morningglory = test: Test B pre/postemergence morningglory; type: in vivo, Ipomoea hederacea; details: for Plant response rating, Morningglory: scale of 0 to 10 where 0 is no effect and 10 is complete control
Summary of the method: as §1

cocklebur = test: Test B pre/postemergence cocklebur; type: in vivo, Xanthium strumarium
Summary of the method: as §1

pigweed = test: Test B pre/postemergence pigweed; type: in vivo, Amaranthus retroflexus; details: for Plant response rating, Redroot pigweed: scale of 0 to 10 where 0 is no effect and 10 is complete control
Summary of the method: as §1

duck salad = test: Test B flood test duck salad; type: in vivo, Heteranthera limosa
Summary of the method: (§2)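 Plants were grown to the 2-leaf stage before treatment with test chemical, then held in a greenhouse for twelve to sixteen days. Injury was visually rated against untreated controls on a 0–10 scale, where 0 is no effect and 10 is complete control.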

wheat = test: Test B pre/postemergence wheat; type: in vivo, Triticum aestivum; details: for Plant response rating, Wheat: scale of 0 to 10 where 0 is no effect and 10 is complete control
Summary of the method: as §1

velvetleaf = test: Test B pre/postemergence velvetleaf; type: in vivo, Abutilon theophrasti; details: for Plant response rating, Velvetleaf: scale of 0 to 10 where 0 is no effect and 10 is complete control
Summary of the method: as §1

rape = test: Test B pre/postemergence rape; type: in vivo, Brassica napus; details: for Plant response rating, Rape: scale of 0 to 10 where 0 is no effect and 10 is complete control
Summary of the method: as §1

surinam grass = test: Test B pre/postemergence surinam grass; type: in vivo, Brachiaria decumbens
Summary of the method: as §1

blackgrass = test: Test B pre/postemergence blackgrass; type: in vivo, Alopecurus myosuroides
Summary of the method: as §1

wild oat = test: Test B pre/postemergence wild oat; type: in vivo, Avena fatua; details: for Plant response rating, Wild oats: scale of 0 to 10 where 0 is no effect and 10 is complete control
Summary of the method: as §1

smallflower flatsedge = test: Test B flood test smallflower flatsedge; type: in vivo, Cyperus difformis
Summary of the method: as §2

crabgrass = test: Test B pre/postemergence crabgrass; type: in vivo, Digitaria sanguinalis
Summary of the method: as §1

purple nutsedge = test: Test B pre/postemergence purple nutsedge; type: in vivo, Cyperus rotundus; details: for Plant response rating, Nutsedge: scale of 0 to 10 where 0 is no effect and 10 is complete control
Summary of the method: as §1

[1] = Postemergence, Rate 250 g/ha, scale 0 to 10
[2] = Preemergence, Rate 250 g/ha, scale 0 to 10, 0 is no effect, 10 is complete control
[3] = Preemergence, Rate 500 g/ha, scale 0 to 10, 0 is no effect, 10 is complete control
[4] = Rate 62 g/ha, Postemergence, scale 0 to 10, 0 no effect, 10 complete control
[5] = Rate 125 g/ha, Postemergence, scale 0 to 10, 0 is no effect, 10 is complete control
[6] = Postemergence, Rate 500 g/ha, scale of 0 to 10 where 0 is no effect and 10 is complete control
[7] = Preemergence, Rate 62 g/ha, scale of 0 to 10 where 0 is no effect and 10 is complete control
[8] = Preemergence, Rate 125 g/ha, scale of 0 to 10 where 0 is no effect and 10 is complete control
[9] = Rate 62 g/ha, flood test species, Pre-emergence, visual evaluation after twelve to sixteen days
[10] = Rate 125 g/ha, under heading Pre-emergence, flood test species, visual evaluation after twelve to sixteen days
[11] = Rate 250 g/ha, Pre-emergence (flood test species), scale 0 to 10, 0 is no effect, 10 is complete control
[12] = Rate 500 g/ha, Pre-emergence, flood test species, scale 0 to 10 (0 no effect, 10 complete control)

C=CC(OC)n1c(=O)on(C(=O)N(c2ccc(F)cc2)C(C)C)c1=O (stereo not shown) [Compound 452]
Sugarbeets plant response rating (sugar beet; [1]): 0 | Plant response rating, Sugarbeets (sugar beet; Preemergence, Rate 62 g/ha): 0 | Plant response rating, Sugarbeets (sugar beet; Preemergence, Rate 125 g/ha): 0 | Sugarbeets plant response rating (sugar beet; [2]): 0 | Sugarbeets plant response rating (sugar beet; [3]): 0 | Sugarbeets plant response rating (sugar beet; [4]): 0 | Sugarbeets plant response rating (sugar beet; [5]): 0 | Corn plant response rating (corn; [1]): 0 | Corn plant response rating (corn; [6]): 0 | Plant response rating, Corn (corn; [7]): 0 | Plant response rating, Corn (corn; [8]): 0 | Corn plant response rating (corn; [2]): 0 | Corn plant response rating (corn; [3]): 0 | Corn plant response rating (corn; [4]): 0 | Corn plant response rating (corn; [5]): 0 | Morningglory plant response rating (morningglory; [1]): 2 | Plant response rating, Morningglory (morningglory; Preemergence, Rate 62 g/ha): 0 | Plant response rating, Morningglory (morningglory; Preemergence, Rate 125 g/ha): 0 | Morningglory plant response rating (morningglory; [2]): 0 | Morningglory plant response rating (morningglory; [3]): 0 | Morningglory plant response rating (morningglory; [4]): 1 | Morningglory plant response rating (morningglory; [5]): 2 | Cocklebur plant response rating (cocklebur; [1]): 0 | Cocklebur plant response rating (cocklebur; [6]): 0 | Plant response rating, Cocklebur (cocklebur; [7]): 0 | Plant response rating, Cocklebur (cocklebur; [8]): 0 | Cocklebur plant response rating (cocklebur; [2]): 0 | Cocklebur plant response rating (cocklebur; [3]): 0 | Cocklebur plant response rating (cocklebur; [4]): 0 | Cocklebur plant response rating (cocklebur; [5]): 0 | Redroot pigweed plant response rating (pigweed; [1]): 0 | Plant response rating, Redroot pigweed (pigweed; Preemergence, Rate 62 g/ha): 0 | Plant response rating, Redroot pigweed (pigweed; Preemergence, Rate 125 g/ha): 0 | Redroot pigweed plant response rating (pigweed; [2]): 0 | Redroot pigweed plant response rating (pigweed; [3]): 0 | Redroot pigweed plant response rating (pigweed; [4]): 0 | Redroot pigweed plant response rating (pigweed; [5]): 0 | Plant response rating, Ducksalad (0 to 10 scale, 0 is no effect, 10 is complete control) (duck salad; [9]): 0 | Ducksalad plant response rating (0 to 10 scale, 0 is no effect, 10 is complete control) (duck salad; [10]): 0 | Ducksalad plant response rating (duck salad; [11]): 0 | Ducksalad plant response rating (duck salad; [12]): 0 | Wheat plant response rating (wheat; [1]): 0 | Plant response rating, Wheat (wheat; Preemergence, Rate 62 g/ha): 0 | Plant response rating, Wheat (wheat; Preemergence, Rate 125 g/ha): 0 | Wheat plant response rating (wheat; [2]): 0 | Wheat plant response rating (wheat; [3]): 0 | Wheat plant response rating (wheat; [4]): 0 | Wheat plant response rating (wheat; [5]): 0 | Velvetleaf plant response rating (velvetleaf; [1]): 0 | Plant response rating, Velvetleaf (velvetleaf; Preemergence, Rate 62 g/ha): 0 | Plant response rating, Velvetleaf (velvetleaf; Preemergence, Rate 125 g/ha): 0 | Velvetleaf plant response rating (velvetleaf; [2]): 0 | Velvetleaf plant response rating (velvetleaf; [3]): 0 | Velvetleaf plant response rating (velvetleaf; [4]): 0 | Velvetleaf plant response rating (velvetleaf; [5]): 0 | Rape plant response rating (rape; [1]): 0 | Plant response rating, Rape (rape; Preemergence, Rate 62 g/ha): 0 | Plant response rating, Rape (rape; Preemergence, Rate 125 g/ha): 0 | Rape plant response rating (rape; [2]): 0 | Rape plant response rating (rape; [3]): 0 | Rape plant response rating (rape; [4]): 0 | Rape plant response rating (rape; [5]): 0 | B. signalgrass plant response rating (surinam grass; Postemergence, Rate 250 g/ha, scale 0 to 10, 0 no effect, 10 complete control): 0 | B. signalgrass plant response rating (surinam grass; [6]): 0 | Plant response rating, B. signalgrass (surinam grass; [7]): 0 | Plant response rating, B. signalgrass (surinam grass; [8]): 0 | B. signalgrass plant response rating (surinam grass; [2]): 0 | B. signalgrass plant response rating (surinam grass; [3]): 0 | B. signalgrass plant response rating (surinam grass; [4]): 0 | B. signalgrass plant response rating (surinam grass; [5]): 0 | Blackgrass plant response rating (blackgrass; [1]): 3 | Blackgrass plant response rating (blackgrass; [6]): 5 | Plant response rating, Blackgrass (blackgrass; [7]): 0 | Plant response rating, Blackgrass (blackgrass; [8]): 0 | Blackgrass plant response rating (blackgrass; [2]): 2 | Blackgrass plant response rating (blackgrass; [3]): 2 | Blackgrass plant response rating (blackgrass; [4]): 0 | Blackgrass plant response rating (blackgrass; [5]): 0 | Wild oats plant response rating (wild oat; [1]): 0 | Plant response rating, Wild oats (wild oat; Preemergence, Rate 62 g/ha): 0 | Plant response rating, Wild oats (wild oat; Preemergence, Rate 125 g/ha): 0 | Wild oats plant response rating (wild oat; [2]): 0 | Wild oats plant response rating (wild oat; [3]): 0 | Wild oats plant response rating (wild oat; [4]): 0 | Wild oats plant response rating (wild oat; [5]): 0 | Plant response rating, S. Flatsedge (0 to 10 scale, 0 is no effect, 10 is complete control) (smallflower flatsedge; [9]): 0 | S. Flatsedge plant response rating (0 to 10 scale, 0 is no effect, 10 is complete control) (smallflower flatsedge; [10]): 0 | S. Flatsedge plant response rating (smallflower flatsedge; [11]): 0 | S. Flatsedge plant response rating (smallflower flatsedge; [12]): 0 | Crabgrass plant response rating (crabgrass; [1]): 6 | Crabgrass plant response rating (crabgrass; [6]): 6 | Plant response rating, Crabgrass (crabgrass; [7]): 5 | Plant response rating, Crabgrass (crabgrass; [8]): 5 | Crabgrass plant response rating (crabgrass; [2]): 5 | Crabgrass plant response rating (crabgrass; [3]): 5 | Crabgrass plant response rating (crabgrass; [4]): 3 | Nutsedge plant response rating (purple nutsedge; [1]): 0 | Plant response rating, Nutsedge (purple nutsedge; Preemergence, Rate 62 g/ha): 0 | Plant response rating, Nutsedge (purple nutsedge; Preemergence, Rate 125 g/ha): 0 | Nutsedge plant response rating (purple nutsedge; [2]): 0 | Nutsedge plant response rating (purple nutsedge; [3]): 0 | Nutsedge plant response rating (purple nutsedge; [4]): 0 | Nutsedge plant response rating (purple nutsedge; [5]): 0
